Test results from patent US20220000734A1, “COMPOSITION AND METHOD OF STRENGTHENING SKIN BARRIER” (AMOREPACIFIC CORPORATION, priority 2018, published 2022).

How the values were obtained:
Assay type in all cases: cell-based, human
KRT1 (keratin 1) = assay: KRT1 gene expression in UVB-irradiated NHEK (Taqman real-time PCR); settings: UVB 25 mJ/cm^2, 10 nM compound, fourth day of culture, FIG. 1
Method: (§1) Normal human epidermal keratinocytes (NHEK) were cultured in a 6-well plate incubator. 24 hours later, the normal human epidermal keratinocytes (NHEK) were cultured by replacing it with phosphate-buffered saline (PBS) and irradiating it with UVB (25 mJ/cm^2) and adding 10 nM of a compound represented by Chemical Formula 1-1 (Cayman Chemical) to the NHEK culture medium. On the fourth day of the culture, cells were harvested to separate RNA and synthesize cDNA through RT-PCR (a reverse transcriptional polymerase chain reaction), and the synthesized cDNA was used to perform Taqman real-time PCR and measure gene expression levels of a keratinocyte differentiation markers, KRT1 and KRT10, and a desmosome constituent factor, DSC1, and the results are shown in FIGS. 1 to 3.

KRT10 (keratin 10) = assay: KRT10 gene expression in UVB-irradiated NHEK (Taqman real-time PCR); settings: UVB 25 mJ/cm^2, 10 nM compound, fourth day of culture, FIG. 2
Method: as §1

DSC1 = DSC1 gene expression in UVB-irradiated NHEK (Taqman real-time PCR); settings: UVB 25 mJ/cm^2, 10 nM compound, fourth day of culture, FIG. 3
Method: as §1

CC/C=C/C/C=C\C[C@H](O)\C=C/C=C/C=C/[C@H](O)C/C=C\CCC(=O)O [Chemical Formula 1-1]
increased again: gene expression level of KRT1 (keratin 1) (KRT1 (keratin 1)) | gene expression level of KRT10 (keratin 10) (KRT10 (keratin 10)) | gene expression level of DSC1 (DSC1)
